This is an account of results in paper PMC12426595 (Cancer Research Communications, 2025).

For data set [1], the target named is T1, BTK-NanoLuc Fusion Vector in HEK293 cells (Homo sapiens, UniProt Q06187).
T1 construct: host or cells: HEK293
Nature of the data set: NanoBRET intracellular binding assay, BTK. The settings on record: read-out: EC50 BTK (NanoBRET), positive control. The protocol:
Intracellular binding was determined with a NanoBRET assay (Reaction Biology). […] The protein kinase inhibitors dasatinib and […] were used as positive controls.
For orientation: BRET reads energy transfer from a luciferase to a nearby fluorophore.

Data set [2] in a line: In vivo DDI: gilteritinib pharmacokinetics. More on the design: species or system mouse. Conditions: plasma, po, 30 mg/kg, gilteritinib 30 mg/kg oral.
The nature of data set [3]: In vivo DDI: pravastatin pharmacokinetics. Conditions: male, C57BL/6, mouse, plasma, po, 20 mg/kg, C57BL/6 male, pravastatin 20 mg/kg oral.
The subject of a further data set is P-gp. The settings on record: cited from earlier work.
Where [4] appears, read: female, C57BL/6, mouse, C57BL/6 female, perpetrator TL-895 3 mg/kg.
Where [5] appears, read: female, C57BL/6, mouse, C57BL/6 female, perpetrator vehicle.
Where [6] appears, read: female, NSG (NOD/SCID gamma), mouse, NSG female, perpetrator TL-895 3 mg/kg.
The mark [7] stands for this setting: female, NSG (NOD/SCID gamma), mouse, NSG female, perpetrator vehicle.
The mark [8] stands for this setting: male, C57BL/6, mouse, C57BL/6 male, perpetrator TL-895 3 mg/kg.
Where [9] appears, read: male, C57BL/6, mouse, C57BL/6 male, perpetrator vehicle.
The mark [10] stands for this setting: male, NSG (NOD/SCID gamma), mouse, NSG male, perpetrator TL-895 3 mg/kg.
The mark [11] stands for this setting: male, NSG (NOD/SCID gamma), mouse, NSG male, perpetrator vehicle.

SMILES strings stand for the structures.

T1 sequence (Q06187 whole entry, the tested form may be a part): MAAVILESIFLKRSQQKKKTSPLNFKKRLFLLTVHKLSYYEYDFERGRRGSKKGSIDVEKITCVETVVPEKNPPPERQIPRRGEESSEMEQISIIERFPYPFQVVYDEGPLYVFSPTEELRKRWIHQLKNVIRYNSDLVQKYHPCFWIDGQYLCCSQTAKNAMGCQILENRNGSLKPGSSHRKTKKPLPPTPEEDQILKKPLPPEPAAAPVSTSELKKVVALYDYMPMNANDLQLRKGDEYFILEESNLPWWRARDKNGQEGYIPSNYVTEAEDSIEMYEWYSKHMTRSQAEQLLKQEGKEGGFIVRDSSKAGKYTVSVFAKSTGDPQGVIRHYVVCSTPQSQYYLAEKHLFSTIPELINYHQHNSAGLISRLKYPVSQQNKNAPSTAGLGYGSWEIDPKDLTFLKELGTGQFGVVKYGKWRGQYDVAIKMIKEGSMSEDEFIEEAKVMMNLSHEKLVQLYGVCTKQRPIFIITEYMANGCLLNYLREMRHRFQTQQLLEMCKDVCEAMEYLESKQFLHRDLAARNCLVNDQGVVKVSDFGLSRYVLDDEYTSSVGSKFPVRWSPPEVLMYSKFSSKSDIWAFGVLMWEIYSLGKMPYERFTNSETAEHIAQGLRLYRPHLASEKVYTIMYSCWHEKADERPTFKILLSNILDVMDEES

For the compound `CNC(=O)c1ccccc1Nc1nc(Nc2ccc(N3CCNCC3)cc2)ncc1Cl` [CTx-0294885], the EC50 in data set [1] stood at 30.1 nM.
`CCc1nc(C(N)=O)c(Nc2ccc(N3CCC(N4CCN(C)CC4)CC3)c(OC)c2)nc1NC1CCOCC1` [Gilteritinib, gilteritinib]: the AUC came out at 6440 ng·h/mL in data set [2] (setting [4]); 6980 ng·h/mL in data set [2] (setting [5]); 4830 ng·h/mL in data set [2] (setting [6]); 4930 ng·h/mL in data set [2] (setting [7]); 5130 ng·h/mL in data set [2] (setting [8]); 4960 ng·h/mL in data set [2] (setting [9]). Further, the AUC in data set [2] (setting [10]) came out at 4370 ng·h/mL; in data set [2] (setting [11]), 4410 ng·h/mL. For the same compound, the Cmax in data set [2] (setting [4]) turned out to be 688 ± 97 ng/mL; in data set [2] (setting [5]) it was 787 ± 102 ng/mL; in data set [2] (setting [6]), 507 ± 28 ng/mL; in data set [2] (setting [7]), 593 ± 87 ng/mL; in data set [2] (setting [8]), 502 ± 113 ng/mL; in data set [2] (setting [9]), 469 ± 51 ng/mL. The Cmax came out at 421 ± 20 ng/mL in data set [2] (setting [10]) and 440 ± 86 ng/mL in data set [2] (setting [11]).
As for `CC[C@H](C)C(=O)O[C@H]1C[C@H](O)C=C2C=C[C@H](C)[C@H](CC[C@@H](O)C[C@@H](O)CC(=O)O)[C@H]21` [Pravastatin, pravastatin], the AUC in data set [3] (perpetrator TL-895 10 mg/kg) worked out at 49.8 ± 7.6 ng·h/mL; in data set [3] (perpetrator rifampin 20 mg/kg) it was 333 ± 64 ng·h/mL; in data set [3] (perpetrator vehicle), 102 ± 42 ng·h/mL. Moreover, the Cmax in data set [3] (perpetrator TL-895 10 mg/kg) was 182 ± 31 ng/mL; in data set [3] (perpetrator rifampin 20 mg/kg) it was 994 ± 148 ng/mL; in data set [3] (perpetrator vehicle), 406 ± 186 ng/mL.
Consider `C=CC(=O)N1CCC[C@@H](n2nc(-c3ccc(Oc4ccccc4)cc3)c3c(N)ncnc32)C1` [ibrutinib], for which the “effect of P-gp deficiency on overall exposure” value in the data set with P-gp is “only minimal effects”.

Broadly, the EC50 is the midpoint of the concentration-response curve. What is called AUC is concentration integrated over time. Broadly, the Cmax is the highest concentration seen after dosing.
